Here are results for one molecule from patent US6384027B1, “Phthalocyanine analogs” (QinetiQ Limited, priority 1997, dated 2002).

The series in a line: Solubility in organic solvents. It counts as physicochemical. The settings on record: in solvents such as THF, toluene, cyclohexane and dichloromethane.

Consider `CCCCCCCCc1ccc(CCCCCCCC)c2c1-c1nc-2nc2[nH]c(nc3nc(nc4[nH]c(n1)c1ccncc41)-c1c(CCCCCCCC)ccc(CCCCCCCC)c1-3)c1c(CCCCCCCC)ccc(CCCCCCCC)c21` [1a, 1,4,8,11,15,18-(hexaoctyl)tribenzo-3,4-pyridinoporphyrazine], for which the solubility result was “good solubility”.
